Holding throughout (type): cell-based
Experiment [1] deals with human Nav1.8 channels (Homo sapiens (Human), UniProt Q9Y5Y9). As to the kind of experiment: FRET assay (FDSS). The conditions noted are these: FRET, HEK293 cells expressing human Nav1.8; read-out: IC50 against Nav1.8. On the procedure:
(§1) This screen is used to determine the effects of compounds on human Nav1.8, and human Nav1.5 channels, utilizing the cell imaging technology by Hamamatsu Photonics's Functional Drug Screening System (FDSS). The changes of membrane potential are monitored with fluorescent membrane potential dye pair, DiSBAC2(3) and CC2-DMPE, using FRET technology.
(§2) HEK293 cells expressing human Nav1.8 channels or human Nav1.5 channels are grown in T225 flasks, in a 5% CO2 humidified incubator to about 80% confluence. Media composition of HEK293 cells expressing human Nav1.8 channels consists of Dulbecco's Modified Eagle Medium (high glucose), 10% fetal calf serum (FCS), 100 units/mL Penicillin, 100 microgram/mL Streptomycin, 200 microgram/mL Zeocin and 500 microgram/mL Geneticine. HEK293 cells expressing human Nav1.5 channels are maintained in Dulbecco's Modified Eagle Medium (high glucose) supplemented with 10% fetal calf serum (FCS), 100 units/mL Penicillin, 100 microgram/mL Streptomycin and 500 microgram/mL Geneticine.
(§3) Seed each cell lines (1.5×10^4 cells/well) into 384-well plates prior to experimentation.
(§4) Incubate at 37° C. in 5% CO2 for 24 hours.
(§5) Wash each well with buffer #1 (140 mM NaCl, 4.5 mM KCl, 10 mM D-Glucose, 2 mM CaCl2, 1 mM MgCl2, 10 mM HEPES, pH 7.4 adjusted with. NaOH) twice using plate washer.
(§6) Add 1st loading solution containing 7.5 microM CC2-DMPE and 0.06% Pluronic F-127 in buffer #1.
(§7) Incubate the plate at rt in dark for 0.5 hours.
(§8) Wash each well with buffer #2 (160 mM Choline, 10 mM D-Glucose, 0.1 mM CaCl2, 1 mM MgCl2, 1.0 mM HEPES, pH 7.4 adjusted with KOH) twice using plate washer.
(§9) Add 2nd loading solution containing 75 microM DiSBAC2(3), 2.5 mM Xylene Fast Yellow, 10 microM Deltamethrin or 100 microM veratridine and 0.02% Pluronic F-127 in buffer #2.
(§10) Add compound solutions into the assay plate and leave the plate for 30 minutes under the dark at rt.
(§11) Monitor the fluorescent membrane potentials before and after the addition of buffer #2 by FDSS.
(§12) The data is analyzed and reported as normalized ratios of intensities measured in the 465 nm and 575 nm channels. The process of calculating these ratios is performed as follows: FR=(FI465Max/FI575Min)−(FI465B/FI575B) [Math.2]
(§13) “FI465B”=the mean of fluorescence intensity as baseline (before Na^+ ligand addition) at 465 nm
(§14) “FI575B”=the mean of fluorescence intensity as baseline (before Na^+ ligand addition) at 575 nm
(§15) “FI465Max”=maximum fluorescence intensity at 465 nm after Na^+ stimulation
(§16) “FI575Min”=minimum fluorescence intensity at 575 nm after Na^+ stimulation
(§17) This analysis is performed using a computerized specific program designed for FDSS generated data. Fluorescence ratio values are plotted using XLfit to determine an IC50 value for each compound.

Experiment [2] addresses human Nav1.5 channels (Homo sapiens (Human), UniProt Q14524). Put plainly: FRET assay (FDSS). Particulars: HEK293 cells expressing human Nav1.5, read-out: activity (IC50) against Nav1.5. The protocol: as §1, §2, §3, §4, §5, §6, §7, §8, §9, §10, §11, §12, §13, §14, §15, §16, §17
Experiment [3] has as its target T1, Nav1.7 (Homo sapiens (Human), UniProt Q15858). Put plainly: EFS-FRET assay. Particulars: EFS-FRET, CHO cells expressing human Nav1.7; read-out: IC50 against Nav1.7. The protocol:
This screen is used to determine the effects of compounds on human Nav1.7 channels, utilizing electrical field stimulation (EFS) system in 96-well plate format on FDSS (Hamamatsu Photonics) platform. The change of membrane potential is monitored with FRET dye pair, DiSBAC2(3) and PTS 18.
CHO (Chinese hamster ovary) cells expressing human Nav1.7 channels are grown in T225 flasks, in a 5% CO2 humidified incubator to about 80% confluence. Media composition consists of HAM/F^.12 with Glutamax I, 10% FCS, 100 units/mL penicillin and 100 microgram/mL hygromycin.
Seed each cell lines (1×10^5 cells/well) into 96-well plates prior to experimentation.
Incubate at 37° C. in 5% CO2, for 24 hours.
Wash each well with assay buffer (140 mM NaCl, […], 10 mM D-Glucose, 2 mM CaCl2, 1 mM MgCl2, 10 mM HEPES, pH 7.4 adjusted with NaOH) twice.
Add 1st loading solution containing 10 microM PTS18 and 0.06% Pluronic F-127 in assay buffer.
Incubate the plate at rt in dark for 1 hour. • Remove 1st loading solution and add 2nd loading solution containing 12.5 microM DiSBAC2(3), 1.25 mM Xylene Fast Yellow and 0.0075% Pluronic F-127 in assay buffer. • Place the plate under the dark at rt for 25 minutes. • Add compound solutions into the assay plate. • Set the assay plate in FDSS and place an EFS device on the plate. • Measure EFS-induced fluorescent response by FDSS.
The data are analyzed and reported as normalized ratios of intensities measured at […]. The process of calculating these ratios is performed as follows:
This analysis is performed using a computerized specific program designed for
FDSS generated data. Fluorescence ratio values are plotted using XLfit to determine an IC50 value for each, compound.

Experiment [4] has as its target T1, Nav1.7. Put plainly: Electrophysiology assay, whole cell patch clamp, affinity to inactivated state. The conditions noted are these: read-out: activities (Ki) against Nav1.7. On the procedure:
Whole cell patch clamp recording is used to assess the efficacy or selectivity of Na channel blocker on human voltage gated sodium channels. Na channel expressing cells are dissociated by 0.05% Trypsine-EDTA or Accutase, and then seeded on cover glass for 2-24 hrs.
Manual patch clamp recordings are conducted at rt using the voltage-clamp amplifier (Axon Instruments or HEKA electronik). Electrodes are pulled with P-97 electrode puller (Sutter Instrument). The electrode resistances are 1-3 MOhm when intracellular solution is filled. Currents are lowpass filtered between 2-5 kHz and digitally sampled at 10 kHz.
The extracellular and intercellular solutions for human Nav1.7 and Nav1.5 consist of the following composition: […]
The normalized steady-state inactivation curve is constructed using 2 sec (for vehicle) or 60 sec (for drugs) conditioning pulse to different potentials followed immediately by the test pulse to −10 mV. […] The affinity of test compound to resting state of Na channels (Kresting or Kr) is assessed by depolarizing test pulse from a negative holding potential of −130 mV, where virtually all channels are in the resting state. Kr value is calculated by a conventional 1:1 binding model: Kresting(Kr)={[drug]Imax,drug/(Imax, control−Imax, drug)} [Math.8] • where Kresting (=Kr) is a dissociation constant for the resting state and [drug] is compound concentration. […]

Some results are limits rather than exact numbers.

T1 sequence (Q15858 whole entry): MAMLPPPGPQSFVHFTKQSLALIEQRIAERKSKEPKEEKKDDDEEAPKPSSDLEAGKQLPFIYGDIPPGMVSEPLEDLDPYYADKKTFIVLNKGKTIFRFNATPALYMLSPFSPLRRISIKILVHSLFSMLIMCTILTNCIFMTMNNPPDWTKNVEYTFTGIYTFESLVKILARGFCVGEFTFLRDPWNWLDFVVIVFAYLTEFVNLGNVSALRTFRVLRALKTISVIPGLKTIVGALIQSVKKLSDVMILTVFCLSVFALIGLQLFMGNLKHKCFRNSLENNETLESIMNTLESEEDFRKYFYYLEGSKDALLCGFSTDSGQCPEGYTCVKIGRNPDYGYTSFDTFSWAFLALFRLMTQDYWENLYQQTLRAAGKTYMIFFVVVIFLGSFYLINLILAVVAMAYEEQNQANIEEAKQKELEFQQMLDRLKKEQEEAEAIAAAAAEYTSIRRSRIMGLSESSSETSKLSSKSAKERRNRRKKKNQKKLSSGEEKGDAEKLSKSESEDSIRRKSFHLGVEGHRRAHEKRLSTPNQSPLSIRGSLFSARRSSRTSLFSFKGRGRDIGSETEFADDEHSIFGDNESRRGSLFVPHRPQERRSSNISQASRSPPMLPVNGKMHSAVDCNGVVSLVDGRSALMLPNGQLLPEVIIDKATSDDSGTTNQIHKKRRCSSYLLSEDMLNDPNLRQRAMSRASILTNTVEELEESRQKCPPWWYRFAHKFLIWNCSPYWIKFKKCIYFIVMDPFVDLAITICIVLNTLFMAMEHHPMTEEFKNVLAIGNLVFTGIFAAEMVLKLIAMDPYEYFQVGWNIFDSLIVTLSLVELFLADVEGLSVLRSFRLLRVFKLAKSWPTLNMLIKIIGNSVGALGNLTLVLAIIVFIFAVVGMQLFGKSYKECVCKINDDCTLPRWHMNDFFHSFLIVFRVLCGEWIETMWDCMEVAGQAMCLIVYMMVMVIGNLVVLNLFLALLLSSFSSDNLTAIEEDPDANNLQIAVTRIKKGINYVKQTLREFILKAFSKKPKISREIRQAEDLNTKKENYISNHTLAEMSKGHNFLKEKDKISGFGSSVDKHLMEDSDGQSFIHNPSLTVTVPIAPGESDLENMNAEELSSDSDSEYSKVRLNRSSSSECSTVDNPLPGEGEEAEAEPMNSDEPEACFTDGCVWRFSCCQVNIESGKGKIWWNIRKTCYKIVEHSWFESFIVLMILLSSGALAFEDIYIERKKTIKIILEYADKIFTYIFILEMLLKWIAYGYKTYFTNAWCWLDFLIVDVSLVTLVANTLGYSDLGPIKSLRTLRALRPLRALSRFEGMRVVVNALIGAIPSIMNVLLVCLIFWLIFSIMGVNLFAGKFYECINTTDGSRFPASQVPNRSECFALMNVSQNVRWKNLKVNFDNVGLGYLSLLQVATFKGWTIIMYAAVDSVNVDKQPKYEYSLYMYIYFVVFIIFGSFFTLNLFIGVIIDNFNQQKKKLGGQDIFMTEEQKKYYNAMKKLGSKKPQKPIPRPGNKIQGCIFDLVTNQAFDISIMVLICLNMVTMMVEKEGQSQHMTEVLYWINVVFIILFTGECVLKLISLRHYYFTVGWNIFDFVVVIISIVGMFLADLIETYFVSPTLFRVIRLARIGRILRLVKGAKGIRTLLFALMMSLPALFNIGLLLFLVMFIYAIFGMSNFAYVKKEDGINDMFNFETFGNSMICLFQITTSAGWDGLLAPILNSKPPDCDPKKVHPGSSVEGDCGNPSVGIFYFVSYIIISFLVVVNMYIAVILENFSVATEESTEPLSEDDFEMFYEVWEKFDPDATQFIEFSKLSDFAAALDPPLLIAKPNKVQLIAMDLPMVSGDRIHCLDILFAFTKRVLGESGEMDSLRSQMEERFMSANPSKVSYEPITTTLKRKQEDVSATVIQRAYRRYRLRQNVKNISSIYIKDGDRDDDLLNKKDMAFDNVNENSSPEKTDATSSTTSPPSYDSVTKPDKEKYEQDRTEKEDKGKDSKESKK
Sequence of human Nav1.5 channels (Q14524 whole entry): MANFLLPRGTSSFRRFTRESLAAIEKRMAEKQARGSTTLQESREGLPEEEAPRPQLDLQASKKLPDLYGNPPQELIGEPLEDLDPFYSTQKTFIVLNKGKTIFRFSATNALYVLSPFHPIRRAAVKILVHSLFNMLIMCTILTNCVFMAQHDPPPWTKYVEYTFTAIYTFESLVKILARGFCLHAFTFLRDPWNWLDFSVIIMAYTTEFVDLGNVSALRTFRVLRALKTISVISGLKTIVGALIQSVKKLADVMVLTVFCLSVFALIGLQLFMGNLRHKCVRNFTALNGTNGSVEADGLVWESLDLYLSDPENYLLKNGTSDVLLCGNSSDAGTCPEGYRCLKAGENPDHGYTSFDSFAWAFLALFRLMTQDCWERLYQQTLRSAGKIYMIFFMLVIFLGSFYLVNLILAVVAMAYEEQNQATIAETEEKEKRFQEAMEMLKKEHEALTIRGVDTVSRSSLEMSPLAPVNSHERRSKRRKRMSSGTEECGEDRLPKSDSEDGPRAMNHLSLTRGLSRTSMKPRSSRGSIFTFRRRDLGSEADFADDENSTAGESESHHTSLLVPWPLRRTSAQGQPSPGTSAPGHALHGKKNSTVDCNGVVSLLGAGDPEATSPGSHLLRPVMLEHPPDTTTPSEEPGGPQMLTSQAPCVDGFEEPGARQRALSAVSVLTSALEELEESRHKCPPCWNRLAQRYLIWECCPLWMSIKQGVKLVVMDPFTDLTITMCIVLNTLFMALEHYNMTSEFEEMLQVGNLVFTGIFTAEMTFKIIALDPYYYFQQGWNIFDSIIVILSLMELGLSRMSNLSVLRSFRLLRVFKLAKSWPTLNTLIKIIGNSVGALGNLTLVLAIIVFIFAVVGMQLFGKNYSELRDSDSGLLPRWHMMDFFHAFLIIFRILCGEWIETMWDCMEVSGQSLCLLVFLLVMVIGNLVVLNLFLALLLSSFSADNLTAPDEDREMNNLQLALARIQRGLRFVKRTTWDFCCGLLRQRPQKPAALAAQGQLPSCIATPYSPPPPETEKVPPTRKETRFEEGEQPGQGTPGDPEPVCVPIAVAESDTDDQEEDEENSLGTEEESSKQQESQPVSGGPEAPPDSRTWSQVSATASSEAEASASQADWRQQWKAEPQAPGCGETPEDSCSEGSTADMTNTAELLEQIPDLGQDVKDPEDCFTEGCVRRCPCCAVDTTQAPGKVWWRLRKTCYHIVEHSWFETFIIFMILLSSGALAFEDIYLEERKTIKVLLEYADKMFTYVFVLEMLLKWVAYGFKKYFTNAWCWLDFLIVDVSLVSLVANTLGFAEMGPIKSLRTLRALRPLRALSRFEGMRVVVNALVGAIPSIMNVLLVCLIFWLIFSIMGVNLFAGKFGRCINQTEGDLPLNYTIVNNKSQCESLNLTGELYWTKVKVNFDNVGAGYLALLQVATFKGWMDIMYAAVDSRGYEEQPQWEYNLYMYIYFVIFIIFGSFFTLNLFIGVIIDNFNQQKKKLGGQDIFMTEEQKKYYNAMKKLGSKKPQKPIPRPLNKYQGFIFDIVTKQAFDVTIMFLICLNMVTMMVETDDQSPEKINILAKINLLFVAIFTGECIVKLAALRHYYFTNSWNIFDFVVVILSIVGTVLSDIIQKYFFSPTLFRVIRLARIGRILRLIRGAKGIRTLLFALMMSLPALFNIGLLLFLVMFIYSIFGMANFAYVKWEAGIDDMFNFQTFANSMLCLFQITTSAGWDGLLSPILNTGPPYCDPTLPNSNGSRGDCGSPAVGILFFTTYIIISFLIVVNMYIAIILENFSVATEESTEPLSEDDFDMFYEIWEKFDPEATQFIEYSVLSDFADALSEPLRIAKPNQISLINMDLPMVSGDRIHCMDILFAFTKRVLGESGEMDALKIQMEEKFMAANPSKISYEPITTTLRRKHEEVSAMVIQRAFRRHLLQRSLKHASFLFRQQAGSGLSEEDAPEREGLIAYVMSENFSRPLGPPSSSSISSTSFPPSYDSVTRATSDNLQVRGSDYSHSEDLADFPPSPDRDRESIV

Broadly, the IC50 is the midpoint of a concentration-inhibition curve. `CC(CNC(=O)c1ccnc(NC(=O)C2CC2)c1)Oc1ccc(C(F)(F)F)cc1` (stereo not drawn) [Example 1, 2-(cyclopropanecarboxamido)-N-(2-(4-(trifluoromethyl)phenoxy)propyl)isonicotinamide]: the IC50 was 650 nM in experiment [1] and greater than 30000 nM in experiment [2].
Consider `CC(=O)Nc1cc(C(=O)NCCNc2ncc(C(F)(F)F)cc2Cl)cc(C)n1` [Example 4], for which the IC50 in experiment [3] was less than 500 nM. Further, the Ki in experiment [4] worked out at 520 nM.
For the compound `CCC(=O)Nc1cc(C(=O)NCCNc2ncc(C(F)(F)F)cc2Cl)ccn1` [Example 3], the IC50 in experiment [3] was less than 500 nM. Moreover, the Ki in experiment [4] worked out at 960 nM.

The record behind these values is patent publication US11154544B2, “Amide derivatives as Nav1.7 and Nav1.8 blockers” (RaQualia Pharma Inc., priority 2017, dated 2021).
